From patent US8999661B2, “Compositions for detecting cell death and methods of use thereof” (Dana-Farber Cancer Institute, Inc., priority 2008, dated 2015)

B1: Annexin V-Alexa750: Annexin V (Biovision) conjugated to Alexa750-NHS at a labeling ratio of 2:1 (conjugate, UniProt P08758 2-320, looked up)
Annexin A5: AQVLRGTVTDFPGFDERADAETLRKAMKGLGTDEESILTLLTSRSNAQRQEISAAFKTLFGRDLLDDLKSELTGKFEKLIVALMKPSRLYDAYELKHALKGAGTNEKVLTEIIASRTPEELRAIKQVYEEEYGSSLEDDVVGDTSGYYQRMLVVLLQANRDPDAGIDEAQVEQDAQALFQAGELKWGTDEEKFITIFGTRSVSHLRKVFDKYMTISGFQIEETIDRETSGNLEQLLLAVVKSIRSIPAYLAETLYYAMKGAGTDDHTLIRVMVSRSEIDLFNIRKEFRKNFATSLYSMIKGDTSGDYKKALLLLCGEDD
modifications: Alexa Fluor 750 label

What was measured:
hepatocyte apoptosis = assay: In vivo NIR imaging of fulminant hepatic failure (anti-Fas antibody); design: species or system mice; settings: liver region; 10 μg probe; 25 hrs after probe injection
Method: This model was used to compare LDH to Annexin V for near infrared (NIR) imaging of apoptosis. Alexa750-NHS was conjugated to Annexin V (Biovision) and chicken LDHB (XpressBio) at a labeling ratio of 2:1 per mole of protein based on prior optimization. A total of 10 male NCr nude mice were injected with 5 μg of anti-Fas antibody (Jo2, Pharmingen), and 10 animals were injected with 5 μg of an isotype-matched control antibody. Two hours later, mice were injected with 10 μg of either LDH-Alexa750 or Annexin V-Alexa750. Mice underwent NIR fluorescence imaging (IVIS Spectrum, Caliper) 25 hrs after probe injection (FIG. 8A). After spectral unmixing and background subtraction (Living Images software package), regions of interest were used to quantify fluorescence localized to the liver region (FIG. 8A), as indicated with arrowheads.

[1] = tested on: Ku812-Luc+ (BCR-ABL+CML blast crisis) cells; assay: In vivo imaging of chemotherapy-induced apoptosis (AMN107); design: species or system mice; settings: 20 μg probe after 3 doses of AMN107
Method: Subcutaneous tumors were established using Ku812-Luc+ (BCR-ABL+CML blast crisis) cells in NCr nude mice. When tumors were ˜1 cm, mice underwent bioluminescence imaging (BLI) to determine baseline tumor burden, followed by treatment with either AMN107 (nilotinib) at 100 mg/kg intraperitoneally (IP), or with vehicle. After 3 doses, animals were injected with 20 μg of LDH-Alexa750. Fluorescence imaging (FL) was performed 24 and 48 hrs after probe injection (day 4 and 5 of treatment) and BLI was repeated on day 5 of treatment (FIG. 9A).

apoptotic cells [2] = assay: Staining requirements (temperature, calcium) of cLDHB and Annexin V; format: cell-based
Method: To determine if cLDHB is actively transported into cells, staining was performed at room temperature and at 4° C.
A major limitation of Annexin V staining is the requirement for supra-physiological concentrations of calcium (Tait, J. F., D. F. Gibson, and C. Smith, Anal Biochem, 2004. 329: 112-9). To determine whether cLDHB staining required calcium, Annexin V and cLDHB staining was performed in PBS (without calcium or magnesium) or in Annexin Binding Buffer (with 2.5 mM calcium).

[3] = tested on: adherent and suspension cancer cell lines (e.g., HeLa, RS(4;11), THP-1, MDA-MB231); assay: Concordance of Annexin V and cLDHB staining across cancer cell lines; format: cell-based; settings: apoptosis induced by camptothecin, doxorubicin, HDAC inhibitors
[4] = tested on: non-transformed rat cardiomyocytes; assay: Concordance of staining in doxorubicin-treated cardiomyocytes; format: cell-based; settings: apoptosis induced with doxorubicin
apoptotic cells [5] = assay: Homogeneous multiwell apoptosis assay in normal growth medium; format: cell-based; settings: e.g., RPMI with 10% FBS, flow cytometry or High-Content Microscopy
THP-1 cells = assay: Staining of THP-1 cells treated with HDAC inhibitor LAQ824; format: cell-based; settings: THP-1, LAQ824 50 nM, 18 hrs
Method: To correlate cLDHB staining with other measures of apoptosis, a fluorescent probe that binds to activated caspases (pan-caspase-FLICA, Immunochemistry Tech) was used. THP-1 cells were treated with the HDAC inhibitor LAQ824 (50 nM, 18 hrs) to induce apoptosis.
Similarly, we asked whether the […] proteins performed comparably to purified recombinant LDH.

HeLa cells = assay: FACS staining of camptothecin-treated apoptotic HeLa cells; format: cell-based
Method: HeLa cells (5×10^5 in 10 cm plates) maintained in DMEM with 10% FBS were contacted with 5 μM camptothecin to induce apoptosis. Cell staining by FITC-labeled Annexin V (Abcam, Cambridge, Mass.) or Cy5.5-labeled chicken LDH (1 μL) prepared as described in Example 1, was measured by fluorescence-activated cell sorting (FACS) analysis (with cells in annexin binding buffer (Abcam)) 12 h, 24 h, and 48 h later. Untreated HeLa cells served as negative controls.
Staining by Annexin V is known to require the presence of calcium. […] HeLa cells treated with camptothecin to induce apoptosis as in Example 9 were stained with FITC-labeled Annexin V (Abcam, Cambridge, Mass.) or Cy5.5-labeled chicken LDH in calcium-containing Annexin buffer or in calcium-free PBS. Stained cells were analyzed by FACS analysis as in Example 9.
HeLa cells (5×10^5 in 10 cm plates) maintained in DMEM with 10% FBS were contacted with 5 μM camptothecin to induce apoptosis. Cell staining was done in the media: (i) annexin buffer, (ii) DMEM supplemented with 1% FBS; (iii) DMEM supplemented with 2% FBS; (iii) DMEM supplemented with 5% FBS; (iv) DMEM supplemented with 10% FBS. For cell staining FITC-labeled Annexin V (Abcam, Cambridge, Mass.) or Cy5.5-labeled chicken LDH (1 μL) prepared as described in Example 1, was used to for FACS analysis (cells in annexin binding buffer (Abcam)) 48 h later. Untreated HeLa cells served as negative controls. […]

Molecule | mean signal intensity (photons/sec/ROI) of anti-Fas antibody treated animals above IgG control antibody treated animals (hepatocyte apoptosis) | NIR fluorescence signal from the tumors in AMN107-treated animals compared to vehicle-treated controls [1] | staining at room temperature versus 4° C. (apoptotic cells [2]) | staining in PBS (without calcium or magnesium) compared to Annexin Binding Buffer (2.5 mM calcium) (apoptotic cells [2]) | concordance in staining with Annexin V [3] | concordance in staining with Annexin V [4] | staining / quantification of apoptosis with probe added directly to normal growth medium (apoptotic cells [5]) | staining of live cells negative for FLICA staining (THP-1 cells) | change of staining with increasing amounts of FBS (FACS) (HeLa cells; HeLa treated with camptothecin) | stability of staining after washing (HeLa cells; washed with 6 changes of PBS)
LDH-Alexa750: chicken LDHB (XpressBio) conjugated to Alexa750-NHS at a labeling ratio of 2:1 | 4.2 fold | > 4 fold |  |  |  |  |  |  |  | 
cLDHB: chicken LDHB used as fluorescently labeled probe; fluorochrome not stated at the place |  |  | Identical results | identical under both conditions | concordance in staining | Concordant staining | apoptosis can be quantified | negative | no significant changes | entirely stable
B1 | 1.8 fold |  |  |  |  |  |  |  |  | 
